# Assay results as given in patent US7345144B2, “Cyclic peptides for treatment of cachexia” (Palatin Technologies, Inc., priority 2001, dated 2008).
# Tests used:
# hMC4-R = hMC4-R (Homo sapiens, UniProt P32245); assay: Competitive inhibition binding assay using [I125]-NDP-α-MSH, hMC4-R (HEK-293 membranes); settings: read-out: Ki (nM) MC4-R; HEK-293 cells transfected with hMC4-R
# hMC3-R [1] = target: T1, hMC3-R (Homo sapiens, UniProt P41968); assay: Competitive inhibition binding assay using [I125]-NDP-α-MSH, hMC3-R (HEK-293 membranes); settings: read-out: Ki (nM) MC3-R; HEK-293 cells transfected with hMC3-R
# MC1-R [2] = target: T2, MC1-R (Mus musculus, UniProt Q01727); assay: cAMP functional assay, MC1-R (B-16 mouse melanoma cells); format: cell-based; settings: read-out: EC50 as to MC1-R
# [3] = ICV feeding study in rats; format: in vivo; settings: rat, 21 hours
# Experimental: (§1) Change in food intake and body weight is evaluated for selected peptides. Rats with indwelling intracerebroventricular cannulas (ICV rats) are obtained from Hilltop Lab Animals, Inc. (Scottdale, Pa.). Animals are individually housed in conventional plexiglass hanging cages and maintained on a controlled 12 hour on/off light cycle. Water and powdered (LabDiet, 5P00 Prolab RMH 3000) or pelleted (Harlan Teklad 2018 18% Protein Rodent Diet) food is provided ad libitum. For 1 week before treatment, 24-hour food intake and body weight change is recorded to assess a baseline for the group during vehicle treatment. The rats are dosed ICV with vehicle or selected peptides (0.1-3 nmol). The changes in body weight and food intake for the 24 hour period after dosing are determined. The changes in body weight and food intake for the 48 hour and 72 hour periods after dosing are also measured to determine reversal of changes in body weight and food intake effects back to baseline levels.
# All animals were dosed on the first day with saline ICV, and given a pre-weighed food bowl with food weight recorded at 2 and 21 hours post-ICV injection. On day 2, animals were randomized based on the 21 hour food consumption, with animals eliminated due to low food consumption or food spills. […] Food weights were again recorded at 2, 4, 21 and 24 hours post-ICV injection. In some instances, multiple different tests were conducted with each group containing between 8 and 12 members; the average value is given.
# [4] = IV feeding study in male Sprague-Dawley rats; format: in vivo, rat; settings: 1 mg/kg, 24 hour period
# Experimental: as §1, with “peptides. Male Sprague-Dawley rats” for “peptides. Rats with indwelling intracerebroventricular cannulas (ICV rats)”, “from Taconic (Germantown, N.Y.).” for “from Hilltop Lab Animals, Inc. (Scottdale, Pa.).”, “dosed IV or IP” for “dosed ICV”, “peptides (0.5-3 mg/kg).” for “peptides (0.1-3 nmol).”, “to determined” for “to determine”
# Briefly, male Sprague-Dawley rats (300-350 g) were individually housed in shoe box cages with a 12 hour light/dark period. Food intake and body weights were monitored for 24 hours prior to the start of the study. Rats were randomized by body weight and then dosed just before lights-off with the compound of Example 11 or the same volume of vehicle. A pre-weighed amount of food was provided and food intake was determined at 2, 4, 20 and 24 hours.
# MC1-R [5] = target: T2, MC1-R; assay: Competitive inhibition binding assay using [I125]-NDP-α-MSH, MC1-R (B-16 mouse melanoma cell membranes); settings: read-out: Ki (nM) MC1-R; B-16 mouse melanoma cells
# hMC3-R [6] = target: T1, hMC3-R; assay: cAMP functional assay, hMC3-R (HEK-293 cells); format: cell-based; design: expressed in transfected cells; host or cells: HEK-293
# T1 sequence (P41968 whole entry): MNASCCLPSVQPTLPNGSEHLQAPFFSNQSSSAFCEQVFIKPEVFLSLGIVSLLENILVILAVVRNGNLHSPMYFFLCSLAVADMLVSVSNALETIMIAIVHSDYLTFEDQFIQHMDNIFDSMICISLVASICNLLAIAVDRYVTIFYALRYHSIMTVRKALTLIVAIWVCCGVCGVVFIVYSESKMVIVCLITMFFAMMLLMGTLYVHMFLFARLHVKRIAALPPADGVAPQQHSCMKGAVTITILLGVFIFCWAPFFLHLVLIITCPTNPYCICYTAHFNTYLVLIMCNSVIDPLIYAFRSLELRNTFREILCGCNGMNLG
# T2 sequence (Q01727 whole entry): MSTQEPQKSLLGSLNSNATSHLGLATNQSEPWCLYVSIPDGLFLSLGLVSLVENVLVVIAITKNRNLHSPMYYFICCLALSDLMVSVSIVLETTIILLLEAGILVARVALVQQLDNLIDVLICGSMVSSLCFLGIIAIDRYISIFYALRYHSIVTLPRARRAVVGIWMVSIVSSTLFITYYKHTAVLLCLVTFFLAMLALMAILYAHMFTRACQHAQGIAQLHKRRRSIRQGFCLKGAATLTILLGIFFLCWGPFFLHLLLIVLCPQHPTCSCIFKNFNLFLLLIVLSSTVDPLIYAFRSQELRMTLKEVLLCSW
# Chain of hMC4-R (P32245 whole entry): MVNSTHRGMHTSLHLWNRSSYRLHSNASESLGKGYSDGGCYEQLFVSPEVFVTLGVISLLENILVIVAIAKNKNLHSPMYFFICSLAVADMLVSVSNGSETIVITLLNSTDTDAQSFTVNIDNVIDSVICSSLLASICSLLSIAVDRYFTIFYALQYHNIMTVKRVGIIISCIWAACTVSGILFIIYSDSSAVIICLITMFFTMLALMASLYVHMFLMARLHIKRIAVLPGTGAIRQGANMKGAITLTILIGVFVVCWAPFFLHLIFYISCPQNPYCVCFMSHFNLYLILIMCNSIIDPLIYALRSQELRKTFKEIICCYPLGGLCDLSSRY
substance,measurement,setting,value
Ac-cyclo(-Asp-Trp-D-Nal 2-Arg-Nal 2-Lys)-NH2 [Example 11],Ki,hMC4-R,0.03 nM
same,Ki,hMC3-R [1],2 nM
same,EC50,MC1-R [2],> 1000 nM
same,average increase in food intake,[3]; 0.1 nmol,4%
same,average increase in food intake,[3]; 0.3 nmol,18%
same,average increase in food intake,[3]; 1.0 nmol,20%
same,increase in food intake,[4],8%
same,Ki,MC1-R [5],5680 nM
same,agonist/antagonist status as to MC3-R,hMC3-R [6],inactive
